# Measured values as given in US20220033397A1, “PHARMACEUTICAL COMPOUNDS AND THEIR USE AS INHIBITORS OF UBIQUITIN SPECIFIC PROTEASE 19 (USP19)” (ALMAC DISCOVERY LIMITED, priority 2018, published 2022).
# pIC50: −log10 of the molar value.
# Molecular target: T1, Full-length USP19 (Homo sapiens, UniProt O94966)
# T1 construct: Full-length USP19 was purchased from Boston Biochem (E-576); purchased Boston Biochem E-576
# T1 sequence (O94966 1-1318): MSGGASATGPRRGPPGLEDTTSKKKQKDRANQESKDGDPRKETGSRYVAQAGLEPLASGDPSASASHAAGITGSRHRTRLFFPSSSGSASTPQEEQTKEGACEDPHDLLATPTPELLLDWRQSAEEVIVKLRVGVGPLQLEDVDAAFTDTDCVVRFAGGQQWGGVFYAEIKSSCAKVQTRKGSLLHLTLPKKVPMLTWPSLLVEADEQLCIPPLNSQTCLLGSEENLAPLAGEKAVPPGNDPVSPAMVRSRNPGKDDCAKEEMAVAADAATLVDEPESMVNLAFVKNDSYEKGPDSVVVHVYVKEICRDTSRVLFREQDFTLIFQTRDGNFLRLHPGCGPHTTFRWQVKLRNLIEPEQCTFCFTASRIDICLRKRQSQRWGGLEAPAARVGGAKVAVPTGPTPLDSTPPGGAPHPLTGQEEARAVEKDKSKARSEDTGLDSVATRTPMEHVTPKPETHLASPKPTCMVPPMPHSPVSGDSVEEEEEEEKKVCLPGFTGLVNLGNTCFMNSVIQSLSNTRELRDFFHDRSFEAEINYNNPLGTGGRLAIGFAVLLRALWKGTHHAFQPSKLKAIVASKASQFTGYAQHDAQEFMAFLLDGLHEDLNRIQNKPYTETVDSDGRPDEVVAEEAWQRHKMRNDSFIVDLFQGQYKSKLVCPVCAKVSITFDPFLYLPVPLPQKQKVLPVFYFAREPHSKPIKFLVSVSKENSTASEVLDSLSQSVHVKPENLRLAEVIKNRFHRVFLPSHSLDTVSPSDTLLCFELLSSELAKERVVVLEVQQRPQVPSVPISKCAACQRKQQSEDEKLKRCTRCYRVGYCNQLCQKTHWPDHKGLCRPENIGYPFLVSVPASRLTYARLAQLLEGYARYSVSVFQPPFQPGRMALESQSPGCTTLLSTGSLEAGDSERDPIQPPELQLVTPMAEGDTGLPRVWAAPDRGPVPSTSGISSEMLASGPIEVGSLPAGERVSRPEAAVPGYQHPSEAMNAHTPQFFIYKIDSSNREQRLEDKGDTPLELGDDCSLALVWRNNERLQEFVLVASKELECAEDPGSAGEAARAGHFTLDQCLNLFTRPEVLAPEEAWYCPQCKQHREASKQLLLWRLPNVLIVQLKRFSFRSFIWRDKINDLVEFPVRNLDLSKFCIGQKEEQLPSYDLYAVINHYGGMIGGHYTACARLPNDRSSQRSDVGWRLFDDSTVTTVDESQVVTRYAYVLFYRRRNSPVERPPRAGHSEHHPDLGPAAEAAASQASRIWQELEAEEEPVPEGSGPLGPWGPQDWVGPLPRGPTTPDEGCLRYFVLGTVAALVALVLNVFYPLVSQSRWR
# Experiment: USP19 fluorescence polarisation (FP) homogeneous assay with Ubiquitin-Lys-TAMRA substrate
# Assay type: biochemical
# Conditions: 2.5 nM USP19, 30 min pre-incubation, average of at least two duplicate experiments
# Procedure: Unless otherwise stated, all other reagents were purchased from Sigma. Enzymatic reactions were conducted in black flat bottom polystyrene 384-well plates (Nunc) and 30 μL total volume. […] Inhibitors were stored as 10 mM DMSO stocks in an inert environment (low humidity, dark, low oxygen, room temperature) using the Storage Pod System and serial dilutions were prepared in buffer just prior to the assay (from 200 μM to 2 μM, 8-18 data point curve).
# Following incubation at RT for 30 min, the enzymatic reactions were initiated by dispensing the Ub substrate (500 nM, 10 μL). FP was measured every 15 min over a period of 90 min (within the linear range of the assay) using a Synergy 4 plate reader (BioTek) exciting at 530 nm and measuring the amount of parallel and perpendicular light at 575 nm. The FP signal was subsequently normalised to the no compound control.
row,Compound,pIC50
1,"CN(C)C(=O)C1CN(C[C@@]2(O)CCN(C(=O)[C@H](CO)CC3CCCCC3)CC2(C)C)C(=O)CC1c1ccccc1 (stereo partly drawn) [Example 25, 1-(((R)-1-((S)-3-Cyclohexyl-2-(hydroxymethyl)propanoyl)-4-hydroxy-3,3-dimethylpiperidin-4-yl)methyl)-N,N-dimethyl-6-oxo-4-phenylpiperidine-3-carboxamide]",4.30 to 5.30
2,"CN(C)C(=O)C1CN(C[C@]2(O)CCN(C(=O)[C@H](CO)CC3CCCCC3)CC2(C)C)C(=O)CC1c1ccccc1 (stereo partly drawn) [Example 26, 1-(((S)-1-((S)-3-Cyclohexyl-2-(hydroxymethyl)propanoyl)-4-hydroxy-3,3-dimethylpiperidin-4-yl)methyl)-N,N-dimethyl-6-oxo-4-phenylpiperidine-3-carboxamide]",> 6.30
3,"C[C@H](CC1CCCCC1)C(=O)N1CCC(O)(CN2Cc3ccccc3C2=O)C(C)(C)C1 (stereo partly drawn) [Example 27, 2-((1-((R)-3-Cyclohexyl-2-methylpropanoyl)-4-hydroxy-3,3-dimethylpiperidin-4-yl)methyl)isoindolin-1-one]",4.30 to 5.30
4,"C[C@H](CC1CCCCC1)C(=O)N1CCC(O)(CN2CC(Cc3ccccc3)CC2=O)C(C)(C)C1 (stereo partly drawn) [Example 30, 4-Benzyl-1-((1-((R)-3-cyclohexyl-2-methylpropanoyl)-4-hydroxy-3,3-dimethylpiperidin-4-yl)methyl)pyrrolidin-2-one]",5.30 to 6.30
5,"CCCn1c(=O)n(CC2(O)CCN(C(=O)[C@H](C)CC3CCCCC3)CC23CCCC3)c2ccccc21 (stereo partly drawn) [Example 33, 1-((7-((R)-3-Cyclohexyl-2-methylpropanoyl)-10-hydroxy-7-azaspiro[4.5]decan-10-yl)methyl)-3-propyl-1,3-dihydro-2H-benzo[d]imidazol-2-one]",4.30 to 5.30
6,"C[C@H](CC1CCCCC1)C(=O)N1CCC(O)(CN2C(=O)COc3cccnc32)C2(CCCC2)C1 (stereo partly drawn) [Example 35, 4-((7-((R)-3-Cyclohexyl-2-methylpropanoyl)-10-hydroxy-7-azaspiro[4.5]decan-10-yl)methyl)-2H-pyrido[3,2-b][1,4]oxazin-3(4H)-one]",5.30 to 6.30
7,"C[C@H](CC1CCCCC1)C(=O)N1CCC(O)(CN2C(=O)C(=O)c3ccccc32)C2(CCCC2)C1 (stereo partly drawn) [Example 36, 1-((7-((R)-3-Cyclohexyl-2-methylpropanoyl)-10-hydroxy-7-azaspiro[4.5]decan-10-yl)methyl)indoline-2,3-dione]",4.30 to 5.30
8,"C[C@H](CC1CCCCC1)C(=O)N1CCC(O)(CN2C(=O)COc3c(N)cccc32)C2(CCCC2)C1 (stereo partly drawn) [Example 37, 8-Amino-4-((7-((R)-3-cyclohexyl-2-methylpropanoyl)-10-hydroxy-7-azaspiro[4.5]decan-10-yl)methyl)-2H-benzo[b][1,4]oxazin-3(4H)-one]",5.30 to 6.30
9,"C[C@H](CC1CCCCC1)C(=O)N1CCC(O)(CN2CCN(C(=O)OC(C)(C)C)CC2=O)C2(CCCC2)C1 (stereo partly drawn) [Example 38, tert-Butyl 4-((7-((R)-3-cyclohexyl-2-methylpropanoyl)-10-hydroxy-7-azaspiro[4.5]decan-10-yl)methyl)-3-oxopiperazine-1-carboxylate]",> 6.30

# Other lines, results leading:
row,pIC50,Compound
1,> 6.30,"C[C@H](CC1CCCCC1)C(=O)N1CCC(O)(CN2CCOCC2=O)C2(CCCC2)C1 (stereo partly drawn) [Example 31, 4-((7-((R)-3-Cyclohexyl-2-methylpropanoyl)-10-hydroxy-7-azaspiro[4.5]decan-10-yl)methyl)morpholin-3-one]"
2,3.60 to 4.30,"C[C@H](CC(F)(F)F)C(=O)N1CCC(O)(CN2CCOCC2=O)C2(CCCC2)C1 (stereo partly drawn) [Example 32, 4-((10-Hydroxy-7-((R)-4,4,4-trifluoro-2-methylbutanoyl)-7-azaspiro[4.5]decan-10-yl)methyl)morpholin-3-one]"
3,4.30 to 5.30,"C[C@H](CC1CCCCC1)C(=O)N1CCC(O)(CN2CC(CO)CC2=O)C2(CCCC2)C1 (stereo partly drawn) [Example 34, 1-((7-((R)-3-Cyclohexyl-2-methylpropanoyl)-10-hydroxy-7-azaspiro[4.5]decan-10-yl)methyl)-4-(hydroxymethyl)pyrrolidin-2-one]"
4,5.30 to 6.30,C[C@H](CC1CCCCC1)C(=O)N1CCC(O)(CN2CCNCC2=O)C2(CCCC2)C1 (stereo partly shown) [Example 39]
